This note sets out measurements from US20090005398A1, “Methods For The Treatment of Central Nervous System Tumors” (priority 2007, published 2009).

One data set deals with glioma cell lines. As to the kind of experiment: Washout assay, all cell lines together. It counts as cell-based. To be noted: all seven glioma cell lines of Table 5. As for the experimental part: Seven glioma cell lines that can double at least once over three days were thawed and grown to 70-80% confluency before being used in the assay. On day 1, for each cell line, 2-3×10^5 cells were seeded into each well in 6-well cell culture plates and incubated at 37° C. overnight. […] The plates were incubated at 37° C. for 3 days.
On day 5, the compound was efficiently washed four times with culture medium supplemented with 20% fetal bovine serum (FBS) and then washed once in buffered saline solution (PBS). The cells were trypsinized. For each of the concentrations, compound-treated cell lines were plated into five 96-well plates at 5000 cells per well. For the next 4 consecutive days, one plate of the cells was taken out of the incubator and cell proliferation was measured by MTT ELISA assay.
The washout assay is designed to follow the cells' recovery from exposure to the compound. Each glioma cell line was assayed at least twice. The criteria for evaluating sensitivity or resistance was Last Growth Back Concentration (LGC), if LGC<=30 nM, the cell line is considered sensitive; if LGC>=1 uM, it is considered resistant; if LGC is in between these two concentrations, the cell line is considered intermediate. Based on criteria set, all the glioma cell lines appeared to be sensitive to the compound of Example 1.

Data set [1] can be described thus: High throughput solubility assay. It counts as physicochemical. Conditions: aqueous buffer, pH 7.4, 0.05M phosphate buffer. As for the experimental part: Two samples are prepared. One (the standard sample) contains the compound at a fixed concentration of 20 μM in an aqueous/organic mixed solvent cocktail. The other (the test sample) contains the compound at a maximum concentration of 200 μM in pH 7.4, 0.05M phosphate buffer and shaking for 24 h. The test sample is filtered by 0.45μ filter and then spun for 10 min to remove any undissolved solid. HPLC analyses are preformed on these samples. The peak areas are used for computing solubility.

In data set [2] the test system is HFF (normal human foreskin fibroblasts). As to the kind of experiment: Methylene blue growth inhibition assay. To be noted: Fibroblast, 72 h. Type of data set: cell-based. As for the experimental part: (§1) Generally, exponentially growing cell lines of different tumor origins, cultured in appropriate media containing 10% fetal bovine serum at 37° C. in a 5% CO2 incubator were plated at low density (less than 2000 cells/well) in 96-well plates. Twenty four hours post-plating, cells were treated with different concentrations of compound ranging from 10 uM to 0.04 nM. Several wells were left untreated as a control. Seventy two hours post-treatment, cell numbers were determined using 100 μl per well of methylene blue (Sigma M9140) (0.5% in 50:50 Ethanol:water). Stain was incubated at room temperature for 30 minutes before plates were rinsed and dye solubilized in 1% N-lauroyl sarcosine, sodium salt, (Sigma L5125, in PBS) (further details of a methylene blue assay are described below). Plates were read on a microplate reader, measuring the OD at 620 nm.
(§2) Concentration of test compound that inhibited 50% of cell growth (IC50) was determined by 4 parameter fit of data using XLfit, (value of no cell control was subtracted from all samples for background). The data are shown in Table 1 below and represent a compilation of several different experiments, each performed using the general parameters outlined above, although minor variations may have been employed in some instances.
(§3) In one assay, normal human foreskin fibroblasts (HFF), human colon (HCT116, RKO), lung (H460, A549) and breast (MCF7) tumor cell lines were cultured in high glucose DMEM (Life Technologies) containing 10% fetal bovine serum (FBS) at 37° C. in a humidified 5% CO2, 95% air incubator. Cells were harvested using trypsin/EDTA, counted using a haemocytometer, and plated in 100 μL of culture media per well, at the following densities, in a 96-well tissue culture plate (Falcon 3075): HFF 5,000 cells/well, HCT116 3,000 cells/well, RKO 2,500 cells/well, H460 2,500 cells/well, A549 5,000 cells/well, MCF7 4,000 cells/well. The next day, compound was diluted in low glucose DMEM containing 100 μg/mL gentamicin, at twice the final required concentration, from 10 mM stock solutions in DMSO. 100 μL/well of these dilutions were added to the 100 μL of media currently in the assay plates. Medium containing 0.6% DMSO was added to control wells. The final concentration of DMSO in all wells was 0.3%. Cells were incubated at 37° C., 5% CO2 for 72 h. Medium was removed by aspiration. Cell biomass was estimated by staining cells with 80 μL per well methylene blue (Sigma M9140, 0.5% in 50:50 ethanol:water), and incubation at room temperature for 30-60 min. Stain was removed by aspiration and the plates rinsed by immersion in water, then air-dried. To release stain from the cells, 100 μL of solubilization solution was added (1% N-lauroyl sarcosine, Sodium salt, Sigma L5125, in PBS), and plates were shaken gently for about 30 min. Optical density at 620 nm was measured on a microplate reader. Percent inhibition of cell growth was calculated relative to vehicle treated control wells. Concentration of compound that inhibits 50% of cell growth (IC50) was interpolated using nonlinear regression (Levenberg-Marquardt) and the equation, y=Vmax*(1−(x/(K+x)))+Y2, where “K” was equal to the IC50.

For the next data set, the system named is HCT116. As to the kind of experiment: Methylene blue growth inhibition assay. It counts as cell-based. Conditions: Homo sapiens, HCT-116, 72 h. The protocol:
as §1, §2, §3

For a further data set, the system named is A549. As to the kind of experiment: Methylene blue growth inhibition assay. Conditions: Homo sapiens, 72 h. Type of data set: cell-based. As for the experimental part: as §1, §2, §3
The next data set deals with MCF7. As to the kind of experiment: Methylene blue growth inhibition assay. It counts as cell-based. To be noted: Homo sapiens, 72 h. As for the experimental part:
as §1, §2, §3

A further data set concerns RKO. As to the kind of experiment: Methylene blue growth inhibition assay. Conditions: Homo sapiens, 72 h. Type of data set: cell-based. As for the experimental part:
as §1, §2, §3

The next data set relates to H460. As to the kind of experiment: Methylene blue growth inhibition assay. Type of data set: cell-based. To be noted: Homo sapiens, NCI-H460, 72 h. The protocol: as §1, §2, §3
A further data set has as its system MiaPaca. As to the kind of experiment: Cell-Titer-Glo cell proliferation. It counts as cell-based. To be noted: Homo sapiens, MIA PaCa-2, pancreas, 72 h. As for the experimental part:
Exponentially growing cell lines of different tumor origins, cultured in appropriate media containing 10% fetal bovine serum at 37° C. in a 5% CO2 incubator were plated at low density (less than 2000 cells/well) in 96-well plates. Twenty four hours post-plating, cells were treated with different concentrations of compound ranging from 10 uM to 0.04 nM. Several wells were left untreated as a control. Seventy two hours post-treatment, cell numbers were determined using 50-100 ul per well of CellTiter-Glo (Promega #G7573). Plates were incubated at room temperature for 15 minutes and the chemiluminescent signal was read on the Victor V or Envison 2100 reader.
Concentration of compound that inhibited 50% of cell growth (IC50) was determined by 4 parameter fit of data using XLfit, (value of no cell control was subtracted from all samples for background). The Cell-Titer Glo data are shown in Table 3 below and represent a compilation of several different experiments, each performed using the general parameters outlined above, although minor variations may have been employed in some instances.

Where only a bound is given, the exact number is not on record here.

The term solubility denotes the dissolved amount per volume that the medium holds. One may read the IC50 as the concentration at which inhibition is half-maximal. A lower IC50 goes with inhibition by little substance.

Consider `C[C@@H](Oc1cc(-n2cnc3ccc(CN4CCN(C)CC4)cc32)sc1C(N)=O)c1ccccc1C(F)(F)F` [Example 1, 5-{6-[(4-Methylpiperazin-1-yl)methyl]-1H-benzimidazol-1-yl}-3-{(1R)-1-[2-(trifluoromethyl)phenyl]ethoxy}thiophene-2-carboxamide], for which the “sensitivity of glioma cell lines by LGC criteria” value in the data set on glioma cell lines is “sensitive (LGC<=30 nM)”. Moreover, in data set [1], the solubility at 24 h was over 100 µM. For the same compound, the IC50 (in data set [2]; in the data set with HCT116; in the data set on A549; in the data set with MCF7; in the data set on RKO; in the data set on H460) was under 100 nM each time. The compound also returned a concentration for half-maximal inhibition (IC50) in the data set on MiaPaca of under 500 nM.
